From ChEMBL document CHEMBL1145559, “Design, synthesis and in vitro antiprotozoal activity of benzimidazole-pentamidine hybrids” (Bioorg Med Chem Lett, 2008) come the findings set out here.

Assay [1] relates to Trichomonas vaginalis. In words: Antiprotozoal activity against Trichomonas vaginalis. Format: functional, organism-based.
Assay [2] concerns Giardia intestinalis. As to the kind of experiment: Antiprotozoal activity against Giardia lamblia. Format: functional, organism-based. Particulars: Giardia duodenalis.
For assay [3], the system named is Entamoeba histolytica. As to the kind of experiment: Antiprotozoal activity against Entamoeba histolytica. Format: functional, organism-based.
Assay [4] relates to Leishmania mexicana. In words: Antiprotozoal activity against Leishmania mexicana. It is filed as functional, organism-based.
Assay [5] relates to Plasmodium berghei. As to the kind of experiment: Antiprotozoal activity against Plasmodium berghei. It is filed as functional, organism-based.
The test system of assay [6] is Plasmodium berghei. In words: Antiprotozoal activity against Plasmodium berghei at 100 uM. It is filed as functional.
For assay [7], the system named is Plasmodium berghei. In words: Antiprotozoal activity as cell damage against Plasmodium berghei. Format: functional, organism-based.

pIC50: −log10 of the molar value. Active and inactive are the calls of the source. The rule behind the calls is not given here.

Regarding `O=[N+]([O-])c1ccc2[nH]c(-c3ccc(OCCCCCOc4ccc(-c5nc6cc([N+](=O)[O-])ccc6[nH]5)cc4)cc3)nc2c1`, the negative-log IC50 (pIC50) in assay [1] was 5.45; in assay [2] it was 5.13; in assay [3], 4.99; in assay [4], less than 4.30; in assay [5], 4.00. The same compound returned an inhibition at 100 µM in assay [6] of 46%.
For `N=C(N)c1ccc(OCCCCCOc2ccc(C(=N)N)cc2)cc1` [PENTAMIDINE], the negative logarithm of the IC50 (pIC50) in assay [1] was 5.42; in assay [2], 5.39; in assay [3] it was 4.93; in assay [4], 5.02. In assay [7], the outcome was Active.
On to `COc1cc(-c2nc3ccccc3[nH]2)ccc1OCCCCCOc1ccc(-c2nc3ccccc3[nH]2)cc1OC`, for which the pIC50 in assay [1] is 5.21; in assay [2], 4.89; in assay [3], 5.29; in assay [4], less than 4.30; in assay [5], 3.78.
Turning to `FC(F)(F)c1ccc2[nH]c(-c3ccc(OCCCCCOc4ccc(-c5nc6cc(C(F)(F)F)ccc6[nH]5)cc4)cc3)nc2c1`, the negative logarithm of the IC50 (pIC50) was 5.30 in assay [1]; 5.02 in assay [2]; 5.14 in assay [3]; less than 4.30 in assay [4]; 5.19 in assay [5].
With `COc1ccc2[nH]c(-c3ccc(OCCCCCOc4ccc(-c5nc6cc(OC)ccc6[nH]5)cc4)cc3)nc2c1`, the negative-log IC50 (pIC50) in assay [1] is 6.79; in assay [2] it was 6.36; in assay [3] it was 6.96; in assay [4] it was 6.15; in assay [5] it was 4.46.
Take `c1ccc2[nH]c(-c3ccc(OCCCCCOc4ccc(-c5nc6ccccc6[nH]5)cc4)cc3)nc2c1`: the pIC50 in assay [1] was 5.50; in assay [2], 5.74; in assay [3], 6.36; in assay [4] it was 5.97; in assay [5] it was 4.00. This compound yielded an inhibition at 100 µM in assay [6] of 37%.
Turning to `Cc1ccc2[nH]c(-c3ccc(OCCCCCOc4ccc(-c5nc6cc(C)ccc6[nH]5)cc4)cc3)nc2c1`, the pIC50 in assay [1] was 5.38; in assay [2], 5.31; in assay [3], 6.82; in assay [4] it was 6.43; in assay [5] it was 4.00. Also, the inhibition at 100 µM in assay [6] was determined as 43%.
With `COc1cc(-c2nc3cc([N+](=O)[O-])ccc3[nH]2)ccc1OCCCCCOc1ccc(-c2nc3cc([N+](=O)[O-])ccc3[nH]2)cc1OC`, the negative logarithm of the IC50 (pIC50) in assay [1] is 6.10; in assay [2], 5.47; in assay [3], 4.92; in assay [4], 4.77; in assay [5], 4.59.
In the case of `COc1cc(-c2nc3cc(C)ccc3[nH]2)ccc1OCCCCCOc1ccc(-c2nc3cc(C)ccc3[nH]2)cc1OC`, the pIC50 in assay [1] was 5.99; in assay [2], 6.43; in assay [3], 5.35; in assay [4], less than 4.30. In addition, in assay [6], the result was inactive.
Regarding `COc1cc(-c2nc3cc(C(F)(F)F)ccc3[nH]2)ccc1OCCCCCOc1ccc(-c2nc3cc(C(F)(F)F)ccc3[nH]2)cc1OC`, the pIC50 is less than 4.30 in assay [4] and 4.20 in assay [5].
Turning to `COc1ccc2[nH]c(-c3ccc(OCCCCCOc4ccc(-c5nc6cc(OC)ccc6[nH]5)cc4OC)c(OC)c3)nc2c1`, the pIC50 in assay [1] was 5.20; in assay [2], 5.28; in assay [3] it was 6.55; in assay [4] it was less than 4.30; in assay [5] it was 4.62.
Regarding `Cc1ncc([N+](=O)[O-])n1CCO` [METRONIDAZOLE], the results for the pIC50 in assay [1], in assay [2] and in assay [3] were 6.54, 5.89 and 6.11, respectively.

The term pIC50 denotes the IC50 on a negative log10 scale, so that one unit is a factor of ten. A high value points to a small IC50. As usually defined, the inhibition is the share of the control response that was lost under treatment. A lower inhibition goes with a response near the control.
